Activity calls are given as the source filed them. The calls are words filed in the database; no cut-off is given here.
Legend:
Assay type in all cases: cell-based
[1] = molecular target: T1, Somatostatin receptor type 5 (Homo sapiens, UniProt P35346); assay: Compound was tested for inhibition of specific [125I]Tyr11-SRIF binding to human recombinant SST5 (somatostatin) receptor expressed in CHO-K1 cells
[2] = molecular target: Somatostatin receptor type 2 (Homo sapiens) (UniProt P30874); assay: Tested for inhibitory activity at human recombinant sst 2 receptors expressed in CHO-K1 cells; No inhibition showed more than 50% inhibition
Sequence of Somatostatin receptor type 2 (Homo sapiens) (P30874 whole entry): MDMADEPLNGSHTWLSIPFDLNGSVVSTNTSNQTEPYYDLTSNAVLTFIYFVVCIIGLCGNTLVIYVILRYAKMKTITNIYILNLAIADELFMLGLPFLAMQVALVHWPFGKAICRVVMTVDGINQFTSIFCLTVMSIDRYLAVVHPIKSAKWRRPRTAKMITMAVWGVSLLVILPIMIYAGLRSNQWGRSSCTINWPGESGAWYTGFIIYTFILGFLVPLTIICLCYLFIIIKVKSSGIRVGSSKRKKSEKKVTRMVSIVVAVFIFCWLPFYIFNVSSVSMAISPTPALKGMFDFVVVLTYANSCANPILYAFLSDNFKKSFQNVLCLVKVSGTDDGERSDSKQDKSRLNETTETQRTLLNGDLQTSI

[3] = molecular target: T1, Somatostatin receptor type 5; assay: Compound was tested for inhibition of specific [125I]-Tyr11-SRIF binding to human recombinant SST5 (somatostatin) receptor expressed in CHO-K1 cells at 10e-6 M concentration

T1 sequence (P35346 whole entry): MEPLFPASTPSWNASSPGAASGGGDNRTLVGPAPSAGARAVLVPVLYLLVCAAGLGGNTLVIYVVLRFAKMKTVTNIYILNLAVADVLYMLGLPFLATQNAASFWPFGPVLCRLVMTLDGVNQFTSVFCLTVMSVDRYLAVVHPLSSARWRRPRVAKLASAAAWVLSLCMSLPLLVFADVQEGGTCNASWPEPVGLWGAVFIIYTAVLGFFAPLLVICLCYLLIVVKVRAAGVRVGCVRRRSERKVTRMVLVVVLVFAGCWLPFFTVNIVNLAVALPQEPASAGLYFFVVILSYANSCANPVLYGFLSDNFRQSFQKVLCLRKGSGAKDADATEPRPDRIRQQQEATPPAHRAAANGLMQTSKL

Row | Compound | IC50 [1] | Activity [2] | inhibition [3]
1 | NCCCC[C@@H](NC(=O)CC1SC(c2ccccc2)N([C@@H](Cc2ccc(-c3ccccc3)cc2)C(N)=O)C1=O)C(N)=O (some centres undefined) | 1.41 µM | inactive | 
2 | O=C1[C@H](Cc2cccc3ccccc23)N(CCCCc2ccccc2)C(=O)N1CCN1CCCC1 |  | inactive | 49%
3 | COc1ccc(CCCCN2C(=O)N(CCN3CCCC3)C(=O)[C@@H]2Cc2cccc3ccccc23)cc1 |  | inactive | 60%
4 | O=C1[C@H](Cc2ccc(OCc3ccccc3)cc2)N(CCCCc2ccccc2)C(=O)N1CCN1CCCC1 | 0.316 µM | inactive | 
5 | O=C1[C@H](Cc2cccc3ccccc23)N(CCC#Cc2ccccc2)C(=O)N1CCN1CCCC1 | 0.398 µM | inactive | 
6 | O=C1[C@H](Cc2ccc(OCc3ccccc3)cc2)N(CCC#Cc2ccccc2)C(=O)N1CCN1CCCC1 | 0.316 µM | inactive | 
7 | COc1ccc(CCCCN2C(=O)N(CCN3CCCC3)C(=O)[C@@H]2Cc2ccc(OCc3ccccc3)cc2)cc1 | 0.501 µM | inactive | 
